Where two headings read alike, the source gives them in different places.
Legend:
RORγt [1] = target: T1, RORγt (Homo sapiens, UniProt P51449); assay: RORγt binding test using fluorescent-labeled synthetic ligand (TR-FRET); settings: for inhibition at 1 µM: test compound 1 μM, read-out: binding inhibitory rate (%) of fluorescent-labeled synthetic ligand to RORγt at test compound 1 μM
T1 sequence (P51449 1-497 isoform P51449-2): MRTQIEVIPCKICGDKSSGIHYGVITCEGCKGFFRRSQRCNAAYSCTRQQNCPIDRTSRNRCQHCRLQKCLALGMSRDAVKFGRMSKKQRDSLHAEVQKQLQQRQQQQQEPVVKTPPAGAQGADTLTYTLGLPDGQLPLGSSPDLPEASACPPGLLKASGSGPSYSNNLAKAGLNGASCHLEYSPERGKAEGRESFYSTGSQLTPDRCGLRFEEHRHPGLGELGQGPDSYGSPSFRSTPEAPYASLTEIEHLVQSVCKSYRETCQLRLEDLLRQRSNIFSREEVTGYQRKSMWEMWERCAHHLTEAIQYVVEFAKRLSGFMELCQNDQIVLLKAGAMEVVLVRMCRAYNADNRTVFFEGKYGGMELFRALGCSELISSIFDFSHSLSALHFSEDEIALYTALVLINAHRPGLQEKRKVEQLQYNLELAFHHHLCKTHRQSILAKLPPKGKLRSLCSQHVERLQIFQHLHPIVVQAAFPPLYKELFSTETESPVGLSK
Method: RORγt Binding Test Using Fluorescent-Labeled Synthetic Ligand
The binding activity of the test compound to RORγt was measured by a time resolved fluorescence resonance energy transfer (TR-FRET) utilizing histidine-tagged RORγt, fluorescent-labeled synthetic ligand, and terbium-labeled anti-histidine tag antibody (Invitrogen). First, a test compound diluted with an assay buffer (20 mM Tris-HCl (pH 7.5), 100 mM NaCl, 1 mM DTT, 0.1% BSA) was added to a 384 well plate by 3 μL. Then, RORγt diluted with an assay buffer to 240 nM was added by 3 μL, after which fluorescent-labeled synthetic ligand diluted with the assay buffer to 12 μM was added by 3 μL, and the mixture was stood at room temperature for 20 min. Thereafter, a terbium-labeled anti-histidine tag antibody diluted with the assay buffer to 8 nM was added by 3 μL. The mixture was stood at room temperature for 20 min, and fluorescence intensity (excitation wavelength 320 nm, fluorescence wavelength 520 nm, delay time 100 microseconds) was measured by Envision (PerkinElmer).

RORγt [2] = target: T1, RORγt; assay: Cofactor recruitment test (Alpha Screen, biotinylated SRC-1 peptide); format: biochemical; settings: for inhibition at 1 µM: read-out: signal value inhibitory rate (%) at test compound 1 μM
Method: Cofactor Recruitment Test
Cofactor recruitment test was performed by Alpha Screen (Histidine Detection Kit, PerkinElmer) method. First, a test compound was diluted with an assay buffer (50 mM Tris-HCl (pH 7.5), 50 mM KCl, 1 mM DTT, 0.1% BSA) and added to a 384 well plate by 5 μL. […] The mixture was stood in a dark place for 1 hr, and the signal value was measured by Envision (PerkinElmer).

RORγt [3] = target: T1, RORγt; assay: Jurkat reporter test (human IL-17 ROR response element luciferase reporter, RORγt vector); format: cell-based; settings: Jurkat cells; for inhibition at 3 µM: test compound 3 μM, read-out: luminescence level inhibitory rate (%) at test compound 3 μM
Method: The Jurkat cells used for the reporter test were cultured in a culture medium (RPMI (Invitrogen), 10% FCS (AusGeneX), 100 U/mL penicillin, 100 μg/mL streptomycin). On the day of the test, 4×10^7 cells were recovered by a centrifugal operation (1000 rpm, for 5 min) and suspended in PBS (phosphate buffered saline) (Invitrogen). Thereafter, the cells were recovered again by a centrifugal operation, and suspended in 2 mL of R buffer (NEON transfection kit, Invitrogen). […] Gene transfer was performed by Electroporation apparatus (NEON, Invitrogen) under the conditions of pulse voltage 1350 V, interval 10 milliseconds, number of times 3. The cells after gene transfer were suspended in 40 mL of a reaction medium (RPMI, 10% Lipid reduced FCS (HyClone), 10 mM HEPES (pH 7.5), 100 U/mL penicillin, 100 μg/mL streptomycin, 5 μM lovastatin), and plated in a 96 well plate by 90 μL. A test compound diluted with the reaction medium was added by 10 μL, and the cells were cultured overnight in an incubator. Bright-Glo (Promega) was added by 100 μL, and the mixture was stirred at room temperature for 10 min, and the luminescence level was measured by Envision (PerkinElmer).

| inhibition at 1 µM (RORγt [1]) | inhibition at 1 µM (RORγt [2]) | inhibition at 3 µM (RORγt [3]) | Structure (SMILES) | other results |
| --- | --- | --- | --- | --- |
| 102% | 108% | 107% | CC(C)n1c(=O)n(CC2CC2(F)F)c(=O)c2cc(NC(=O)N3CCOC(C(=O)Nc4cnc(C#N)c(Cl)c4)C3)c(F)cc21 (mixture of isomers) [Example 356, (2R)—N^2-(5-chloro-6-cyanopyridin-3-yl)-N^4-(3-((2,2-difluorocyclopropyl)methyl)-7-fluoro-1-isopropyl-2,4-dioxo-1,2,3,4-tetrahydroquinazolin-6-yl)morpholine-2,4-dicarboxamide (mixture of two stereoisomers)] |  |
| 101% | 105% | 107% | CC(C)n1c(=O)n(CC2CC2(F)F)c(=O)c2cc(NC(=O)N3CCCC(n4cnc5cc(C#N)ccc5c4=O)C3)c(F)cc21 (mixture of isomers) [Example 360, (3R)-3-(7-cyano-4-oxoquinazoline-3(4H)-yl)-N-(3-((2,2-difluorocyclopropyl)methyl)-7-fluoro-1-isopropyl-2,4-dioxo-1,2,3,4-tetrahydroquinazolin-6-yl)piperidine-1-carboxamide (mixture of two stereoisomers)] |  |
| 102% | 105% | 110% | CC(C)n1c(=O)n(CC2CC2(F)F)c(=O)c2cc(NC(=O)N3CCCC(n4cnc5cc(C#N)ccc5c4=O)C3)c(F)cc21 (single isomer, unassigned) [Example 367, (3R)-3-(7-cyano-4-oxoquinazoline-3(4H)-yl)-N-(3-(((1R or 1S)-2,2-difluorocyclopropyl)methyl)-7-fluoro-1-isopropyl-2,4-dioxo-1,2,3,4-tetrahydroquinazolin-6-yl)piperidine-1-carboxamide (one stereoisomer, quinazolinedione: derived from tR1)] |  |
|  |  |  | CC(C)n1c(=O)n(CC2CC2(F)F)c(=O)c2cc(NC(=O)N3CCOC(C(=O)Nc4ccc(C#N)c(Cl)c4)C3)c(F)cc21 (single isomer, unassigned) [Example 368, (2R)—N^2-(3-chloro-4-cyanophenyl)-N^4-(3-(((1R or 1S)-2,2-difluorocyclopropyl)methyl)-7-fluoro-1-isopropyl-2,4-dioxo-1,2,3,4-tetrahydroquinazolin-6-yl)morpholine-2,4-dicarboxamide (one stereoisomer, quinazolinedione: derived from tR2)] | binding inhibitory rate (%) of fluorescent-labeled synthetic ligand to RORγt at test compound 1 μM (RORγt [1]): 102%; signal value inhibitory rate (%) at test compound 1 μM (RORγt [2]; test compound 1 μM): 105%; luminescence level inhibitory rate (%) at test compound 3 μM (RORγt [3]): 108% |
|  |  |  | CC(C)n1c(=O)n(CC2CC2(F)F)c(=O)c2cc(NC(=O)N3CCCC(n4cnc5cc(C#N)ccc5c4=O)C3)c(F)cc21 (single isomer, unassigned) [Example 369, (3R)-3-(7-cyano-4-oxoquinazoline-3(4H)-yl)-N-(3-(((1R or 1S)-2,2-difluorocyclopropyl)methyl)-7-fluoro-1-isopropyl-2,4-dioxo-1,2,3,4-tetrahydroquinazolin-6-yl)piperidine-1-carboxamide (one stereoisomer, quinazolinedione: derived from tR2)] | binding inhibitory rate (%) of fluorescent-labeled synthetic ligand to RORγt at test compound 1 μM (RORγt [1]): 102%; luminescence level inhibitory rate (%) at test compound 3 μM (RORγt [3]): 110% |
| 101% |  |  | CC(C(F)F)n1c(=O)n(CC2CC2)c(=O)c2cc(NC(=O)N3CCCC(n4cnc5cc(C#N)ccc5c4=O)C3)c(F)cc21 [Example 372, (3R)-3-(7-cyano-4-oxoquinazoline-3(4H)-yl)-N-(3-(cyclopropylmethyl)-1-(1,1-difluoropropan-2-yl)-7-fluoro-2,4-dioxo-1,2,3,4-tetrahydro-quinazolin-6-yl)piperidine-1-carboxamide (one stereoisomer, quinazolinedione: derived from tR1)] |  |
|  |  |  | CC(C(F)F)n1c(=O)n(CC2CC2)c(=O)c2cc(NC(=O)N3CCOC(C(=O)Nc4ccc(C#N)c(Cl)c4)C3)c(F)cc21 [Example 373, (2R)-N^2-(3-chloro-4-cyanophenyl)-N^4-(3-(cyclopropylmethyl)-1-(1,1-difluoropropan-2-yl)-7-fluoro-2,4-dioxo-1,2,3,4-tetrahydro-quinazolin-6-yl)morpholine-2,4-dicarboxamide (one stereoisomer, quinazolinedione: derived from tR2)] | binding inhibitory rate (%) of fluorescent-labeled synthetic ligand to RORγt at test compound 1 μM (RORγt [1]; 1 µM): 97% |
|  |  |  | CC(C(F)F)n1c(=O)n(CC2CC2)c(=O)c2cc(NC(=O)N3CCCC(n4cnc5cc(C#N)ccc5c4=O)C3)c(F)cc21 [Example 374, (3R)-3-(7-cyano-4-oxoquinazoline-3(4H)-yl)-N-(3-(cyclopropylmethyl)-1-(1,1-difluoropropan-2-yl)-7-fluoro-2,4-dioxo-1,2,3,4-tetrahydro-quinazolin-6-yl)piperidine-1-carboxamide (one stereoisomer, quinazolinedione: derived from tR2)] | binding inhibitory rate (%) of fluorescent-labeled synthetic ligand to RORγt at test compound 1 μM (RORγt [1]; 1 µM): 102% |
| 95% |  |  | CC(C)n1c(=O)n(CC2CC2)c(=O)c2cc(NC(=O)N3CCC(F)(F)C(n4cnc5cc(C#N)ccc5c4=O)C3)c(F)cc21 (stereo not drawn) [Example 375, 3-(7-cyano-4-oxoquina-zoline-3(4H)-yl)-N-(3-(cyclopropylmethyl)-7-fluoro-1-isopropyl-2,4-dioxo-1,2,3,4-tetrahydro-quinazolin-6-yl)-4,4-difluoropiperidine-1-carboxamide (one stereoisomer, piperidine: derived from tR1)] |  |

| Structure (SMILES) | inhibition at 1 µM (RORγt [1]) | inhibition at 1 µM (RORγt [2]) | inhibition at 3 µM (RORγt [3]) | other results |
| --- | --- | --- | --- | --- |
| CC(C)n1c(=O)n(CC2CC2(F)F)c(=O)c2cc(NC(=O)N3CCOC(C(=O)Nc4cc(Cl)c(C#N)cc4F)C3)c(F)cc21 (mixture of isomers) [Example 348, (2R)—N^2-(5-chloro-4-cyano-2-fluorophenyl)-N^4-(3-((2,2-difluorocyclopropyl)methyl)-7-fluoro-1-isopropyl-2,4-dioxo-1,2,3,4-tetrahydroquinazolin-6-yl)morpholine-2,4-dicarboxamide (mixture of two stereoisomers)] | 102% | 107% | 107% |  |
| CC(C)n1c(=O)n(CC2CC2(F)F)c(=O)c2cc(NC(=O)N3CCOC(C(=O)Nc4ccc(C#N)c(Cl)c4)C3)c(F)cc21 (single isomer, unassigned) [Example 366, (2R)—N^2-(3-chloro-4-cyanophenyl)-N^4-(3-(((1R or 1S)-2,2-difluorocyclopropyl)methyl)-7-fluoro-1-isopropyl-2,4-dioxo-1,2,3,4-tetrahydroquinazolin-6-yl)morpholine-2,4-dicarboxamide (one stereoisomer, quinazolinedione: derived from tR1)] | 102% | 105% | 108% |  |
| CC(C(F)F)n1c(=O)n(CC2CC2)c(=O)c2cc(NC(=O)N3CCOC(C(=O)Nc4ccc(C#N)c(Cl)c4)C3)c(F)cc21 [Example 371, (2R)-N^2-(3-chloro-4-cyanophenyl)-N^4-(3-(cyclopropylmethyl)-1-(1,1-difluoropropan-2-yl)-7-fluoro-2,4-dioxo-1,2,3,4-tetrahydro-quinazolin-6-yl)-morpholine-2,4-dicarboxamide (one stereoisomer, quinazolinedione: derived from tR1)] | 95% |  |  |  |
